Columns and labels:
[1] = system: MCF 10A human mammary epithelial cells line; experiment: SRB antiproliferative assay, MCF 10A (normal); type: cell-based; settings: Homo sapiens, MCF-10A, 72 h, mean ± SD, read-out: Normal cell line, IC50, MCF-10A
Method: (§1) We determined the effect of various structural factors in the substrates on the antiproliferative activity against those selected to the study cell lines: the location and/or the presence of the prenyl group, the chalcone/flavanone skeleton and the presence of an O-methyl group at C-5 in flavanones. Flavonoids presented in Figure 1 were tested for the antiproliferative activity towards eight cancer cell lines including estrogen-dependent (MCF7 and T-47D) and two normal ones (HLMEC and MCF 10A). The in vitro antiproliferative activity was measured using SRB assay. The results are presented in Figure 2 (and in the supplement in Table S1). The antiproliferative activity was measured separately for each of the experiments and given as the average IC50 (the concentration of tested compound which inhibits 50% of the cells population). Cisplatin (CP), a common anticancer drug, was used as a positive control.
(§2) The following established in vitro cell lines were applied: MCF7, T-47D, MDA-MB-231 (human breast cancer cell line), A2780 (human ovarian cancer cell line), A2780cis (human cisplatin-resistant ovarian cancer cell line), PC-3 and DU 145 (human prostate cancer cell lines), HT-29 (human colon cancer cell line), HLMEC (human lung microvascular endothelial cell line), and MCF 10A (human mammary epithelial cells line).
(§3) The cell lines: MDA-MB-231, HT-29, PC-3, DU 145, and MCF 10A were obtained from the American Type Culture Collection (Rockville, MD, USA), MCF7, T-47D, A2780, A2780cis from the European Collection Cell Cultures (Sigma-Aldrich, Chemie GmbH, Steinheim, Germany), while the HLMEC cell line was obtained by M. Paprocka from the institute. All cell lines are being maintained in the Institute of Immunology and Experimental Therapy (Wrocław, Poland). DU 145 and MCF7 cells were cultured in Eagle medium (supplemented with 4mM L-glutamine, 10% fetal bovine serum, 1 mM sodium pyruvate for DU 145 cells or 2 mM L-glutamine, 1% mem non-essential amino acid solution and 8 µg/mL insulin and 10% fetal bovine serum for MCF7). […] HT-29 and T-47D cell lines were cultured in RPMI 1640 + OPTI-MEM medium supplemented with 2 mM L-glutamine, 5% fetal bovine serum and 8 µg/mL of insulin (T-47D) or 1 mM sodium pyruvate (HT-29). MDA-MB-231, PC-3 and HLMEC cell lines were cultured in RPMI 1640 medium supplemented with 2 mM L-glutamine and 10% fetal bovine serum. Medium for MCF 10A cell line consisted of F-12 nutrient mixture supplemented with cholera toxin (0.05 µg/mL), insulin (10 µg/mL), hydrocortisone (0.5 µg/mL), 5% horse serum, and EGFH (20 ng/mL). All the culture media contained antibiotics: 100 units/mL penicillin (Polfa Tarchomin SA, Warsaw, Poland), and 100 µg/mL streptomycin (Sigma-Aldrich, Chemie GmbH, Steinheim, Germany). All cell lines were grown at 37 °C with 5% CO2 humidified atmosphere.
(§4) Twenty-four hours before the incubation with the tested compounds, the cells were seeded in 96-plates (Sarstedt, Germany) at a density of 1 × 10^4 cells per well (0.75 × 10^4 per well for MCF7 and 1 × 10^3 per well for HLMEC) in 100 µL of a culture medium.
(§5) Each agent at each concentration (from 0.1 to 100 µg/mL) was tested in a single experiment, which was repeated four to five times. […] Cisplatin was used as a reference drug.
(§6) The results were calculated as the IC50 (inhibitory concentration 50%)—the concentration of the tested compound which inhibits 50% of the cells population. IC50 values were calculated for each experiment separately and mean values ± SD are presented in the Table S1 in the Supplementary Materials. Each compound at each concentration was tested in triplicate in a single experiment, which was repeated four to five times.
(§7) The cells were fixed in situ by gently adding cold 50% trichloroacetic acid (50 µL per well). The plates were incubated at 4 °C for 1h and then washed five times with tap water. […]

[2] = system: human CYP1A1; set-up: method as in PMID 10752639; settings: cited from earlier work
[3] = system: HLMEC human lung microvascular endothelial cell line; experiment: SRB antiproliferative assay, HLMEC (normal); type: cell-based; settings: Homo sapiens, Endothelial cell, 72 h, mean ± SD
[4] = system: HT-29 human colon cancer cell line; experiment: SRB antiproliferative assay, HT-29; type: cell-based
[5] = system: T-47D human breast cancer cell line; experiment: SRB antiproliferative assay, T-47D; type: cell-based
Method: as §1, §2, §3, §4, §5, §6, §7

[6] = system: DU 145 human prostate cancer cell line; experiment: SRB antiproliferative assay, DU 145; type: cell-based
Method: as §1, §2, §3, §4, §5, §6, §7

[7] = system: A2780cis human cisplatin-resistant ovarian cancer cell line; experiment: SRB antiproliferative assay, A2780cis; type: cell-based
Method: as §1, §2, §3, §4, §5, §6, §7

[8] = system: human CYP1B1; set-up: method as in PMID 10752639; settings: cited from earlier work
[9] = system: MDA-MB-231 human breast cancer cell line; experiment: SRB antiproliferative assay, MDA-MB-231; type: cell-based
Method: as §1, §2, §3, §4, §5, §6, §7

[10] = system: A2780 human ovarian cancer cell line; experiment: SRB antiproliferative assay, A2780; type: cell-based
Method: as §1, §2, §3, §4, §5, §6, §7

[11] = breast tissue study of Bolca and co-workers; cited from earlier work
[12] = system: PC-3 human prostate cancer cell line; experiment: SRB antiproliferative assay, PC-3; type: cell-based
Method: as §1, §2, §3, §4, §5, §6, §7

[13] = system: MCF7 human breast cancer cell line; experiment: SRB antiproliferative assay, MCF7; type: cell-based
Method: as §1, §2, §3, §4, §5, §6, §7

[14] = system: PC-3 cell line; set-up: method as in PMID 23434138; settings: earlier study; cited from earlier work

**Q.** Which results are given for `COc1cc(O)c(CC=C(C)C)c(O)c1C(=O)/C=C/c1ccc(O)cc1` [XN, 3′-(3,3-dimethylallyl)-4,2′,4′-trihydroxy-6′-methoxychalcone]?
**A.** IC50 [1]: 56 ± 27.3 µM; Inhibition of EROD activity of CYP1A1 [2]: almost completely inhibited; IC50 [3]: 9.57 ± 4.23 µM; IC50 ([4]; Homo sapiens, HT-29, SRB, 72 h, mean ± SD): 9.42 ± 0.25 µM; Selectivity index SIA, HT-29 ([4]; IC50 HLMEC / IC50 HT-29): 1.02; Selectivity index SIB, HT-29 ([4]; IC50 MCF-10A / IC50 HT-29): 5.94; IC50 ([5]; Homo sapiens, T47D, SRB, 72 h, mean ± SD): 7.99 ± 2.77 µM; Selectivity index SIA, T-47D ([5]; IC50 HLMEC / IC50 T-47D): 1.20; Selectivity index SIB, T-47D ([5]; IC50 MCF-10A / IC50 T-47D): 7.00; IC50 ([6]; Homo sapiens, DU-145, SRB, 72 h, mean ± SD): 6.49 ± 2.14 µM; Selectivity index SIA, Du-145 ([6]; IC50 HLMEC / IC50 Du-145): 1.47; Selectivity index SIB, Du-145 ([6]; IC50 MCF-10A / IC50 Du-145): 8.62; IC50 ([7]; Homo sapiens, A2780cis, SRB, 72 h, mean ± SD, read-out: Cancer cell line, IC50, A-2780cis): 8.21 ± 0.83 µM; Selectivity index SIA, A-2780cis ([7]; IC50 HLMEC / IC50 A-2780cis): 1.17; Selectivity index SIB, A-2780cis ([7]; IC50 MCF-10A / IC50 A-2780cis): 6.81; Inhibition of EROD activity of CYP1B1 [8]: almost completely inhibited; IC50 ([9]; Homo sapiens, MDA-MB-231, SRB, 72 h, mean ± SD): 8.46 ± 3.19 µM; Selectivity index SIA, MDA-MB-231 ([9]; IC50 HLMEC / IC50 MDA-MB-231): 1.13; Selectivity index SIB, MDA-MB-231 ([9]; IC50 MCF-10A / IC50 MDA-MB-231): 6.61; IC50 ([10]; Homo sapiens, A2780, SRB, 72 h, mean ± SD, read-out: Cancer cell line, IC50, A-2780): 2.06 ± 1.03 µM; Selectivity index SIA, A-2780 ([10]; IC50 HLMEC / IC50 A-2780): 4.65; Selectivity index SIB, A-2780 ([10]; IC50 MCF-10A / IC50 A-2780): 27.16; SIA against A2780, times higher than the reference ([10]; ratio of SIA to SIA of cisplatin): 5-8 times; Glucuronidation [11]: > 90%; IC50 ([12]; Homo sapiens, SRB, 72 h, mean ± SD): 8.61 ± 1.11 µM; Selectivity index SIA, PC-3 ([12]; IC50 HLMEC / IC50 PC-3): 1.11; Selectivity index SIB, PC-3 ([12]; IC50 MCF-10A / IC50 PC-3): 6.50; IC50 ([13]; Homo sapiens, MCF7, 72 h, SRB, 72 h, mean ± SD): 10.8 ± 0.32 µM; Selectivity index SIA, MCF-7 ([13]; IC50 HLMEC / IC50 MCF-7): 0.88; Selectivity index SIB, MCF-7 ([13]; IC50 MCF-10A / IC50 MCF-7): 5.16

**Q.** With `COc1cc(O)c(CCC(C)(C)O)c(O)c1C(=O)/C=C/c1ccc(O)cc1` [xanthohumol H, 3′-[3′-hydroxy-3”methylbutyl]-4,2′,4′-trihydroxy-6′-methoxychalcone] as the molecule, how does the “Antiproliferative activity towards PC-3 cell line” value [14] read?
**A.** Its value is “inactive”.

From paper PMC6278664, “Highly Cancer Selective Antiproliferative Activity of Natural Prenylated Flavonoids” (Molecules, 2018)
